Values of other authors as cited in patent publication US20240307364A1, “GAS TRANSMISSION EMULSION FOR INTRAVENOUS ADMINISTRATION” (priority 2021, published 2024).
Like-named read-outs stand apart in the source and are kept apart here.

Tests used:
[1] = 37° C.
[2] = measure of relative solubility of PFOC in lipids
[3] = toxic or locally irritating properties of the detected impurity

| Molecule | TcrH (temperature at which equal volumes of PFOC and hexane are mixed together) [2] [°C] | Grade of clearance rate (in vivo) | Toxicity, yes/no [3] | other results |
| --- | --- | --- | --- | --- |
| FC1(F)C(F)(F)C(F)(F)C2(F)C(F)(F)C(F)(F)C(F)(F)C2(F)C1(F)F (stereo not drawn) [Perfluorobicyclo[4.3.0]nonane] | 13 | Fast | – | P, vapor tension [1]: 33 mm Hg; t1/2, elimination half-life (elimination from an organism): 4 days |
| FC(F)(F)C(F)(F)C(F)(F)C(F)(F)N(C(F)(F)C(F)(F)C(F)(F)C(F)(F)F)C(F)(F)C(F)(F)C(F)(F)C(F)(F)F [Perfluorotributylamine (PFTBA), Perfluorotributylamine] | 61 | Slow | – | P, vapor tension [1]: 1 mm Hg; t1/2, elimination half-life (elimination from an organism): 400 to 900 days |
| FC(F)(F)C1(F)C(F)(F)C(F)(F)C(F)(F)C(F)(F)C1(F)F (single isomer, unassigned) [perfluoro(methylcyclohexane)] | – | – | no | – |
| FC1(F)C(F)(F)C(F)(F)C2(F)C(F)(F)C(F)(F)C(F)(F)C(F)(F)C2(F)C1(F)F (stereo not drawn) [Perfluorodecalin (PFD), Perfluorodecalin] | 22 | Fast | – | P, vapor tension [1]: 12 mm Hg |
| Cc1cc(Cc2cc(C)cc(C(C)(C)C)c2O)c(O)c(C(C)(C)C)c1 [phenol, 2,2′-methylenebis[6-(1,1-dimethylethyl)-4-methyl-] | – | – | yes | – |
| FC1(F)C(F)(F)C(F)(F)C(F)(F)C(F)(F)C1(F)F (single isomer, unassigned) [cyclohexane, dodecafluoro-] | – | – | yes | – |
| Cc1cc(O)n(Cc2ccccc2)c(=O)c1C#N [1-benzyl-6-hydroxy-4-methyl-2(1H)-oxo-3-pyridinecarbonitrile] | – | – | yes | – |
| c1ccc2ccccc2c1 [naphthalene] | – | – | yes | – |
| O-ethyl-methoxy-phenyl-oxime | – | – | yes | – |
| CCOC(C)c1ccccc1 (single isomer, unassigned) [benzene, (1-ethoxyethyl)-] | – | – | yes | – |
| CC(C)COC(=O)c1ccccc1C(=O)OCC(C)C [diisobutyl phthalate] | – | – | yes | – |
| CO/C(=N\O)c1ccccc1 [oxime-, methoxy-phenyl-] | – | – | yes | – |
| Perfluorodimethyladamantane [Perfluorodimethyladamantane (PFDMA)] | 32 | Fast | – | t1/2, elimination half-life (in vivo): 10 to 20 days |
| CCCCCO (single isomer, unassigned) [pentanol] | – | – | yes | – |
| Fc1ccc2ccccc2c1 [naphthalene, 2-fluoro-] | – | – | yes | – |
| FC(F)(F)C(F)(F)C(F)(F)N1C(F)(F)C(F)(F)C(F)(F)C(F)(F)C1(F)C(F)(F)F (stereo not drawn) [Perfluoro-1-propyl-2 methylpiperidine] | 35 | Fast | – | P, vapor tension [1]: 19 mm Hg; t1/2, elimination half-life (elimination from an organism): 24 days |
| CN(C)C(=S)N(C)C [thiourea, tetramethyl-] | – | – | yes | – |
| FC(F)(F)C(F)(F)C(F)(F)N(C(F)(F)C(F)(F)C(F)(F)F)C(F)(F)C(F)(F)C(F)(F)F [Perfluorotripropylamine (PFTPA), Perfluorotripropylamine] | 43 | Slow | – | P, vapor tension [1]: 17 mm Hg; t1/2, elimination half-life (elimination from an organism): 65 days |
| Perfluorodihexyl ether | 59 | Slow | – | P, vapor tension [1]: 2 mm Hg; t1/2, elimination half-life (elimination from an organism): 500 days |
| OCC(O)CO [glycerol] | – | – | no | – |
| CCOC(=O)c1ccccc1 [benzoic acid ethyl ester] | – | – | yes | – |
| FC(F)(F)N1C(F)(F)C(F)(F)C(F)(C2(F)C(F)(F)C(F)(F)C(F)(F)C(F)(F)C2(F)F)C(F)(F)C1(F)F [Perfluoromethylcyclohexylpiperidine] | – | Slow | – | t1/2, elimination half-life (elimination from an organism): 90 days |
| FC1(F)C(F)(F)C2(F)C(F)(F)C(F)(F)C(F)(F)C3(F)C(F)(F)C(F)(F)C(F)(C1(F)F)C23F (stereo not drawn) [Perfluorodecahydroacenaphthene] | 24 | Fast | – | P, vapor tension [1]: 2 mm Hg; t1/2, elimination half-life (elimination from an organism): 7 days |
| FC(F)(F)C(F)(F)C(F)(F)C(F)(F)C(F)(F)C(F)(F)C(F)(F)C(F)(F)Br [Perfluorooctyl bromide (PFOB), Perfluorooctyl bromide] | −20 | Fast | – | P, vapor tension [1]: 10.5 mm Hg |
| FC(F)(F)N(C(F)(F)C(F)(F)C(F)(F)C(F)(F)F)C1(F)C(F)(F)C(F)(F)C(F)(C(F)(F)F)C(F)(F)C1(F)F (stereo not drawn) [perfluoromethylbutyl(4-methylcyclohexyl)amine] | – | – | no | – |
| OCc1ccco1 (single isomer, unassigned) [furfurol] | – | – | yes | – |
| CC1C=CCC(C)(C)C1 (stereo not drawn) [cyclohexene, 3,5,5-trimethyl-] | – | – | yes | – |
| CC1=NN(c2ccccc2)C(=O)C1 [3H-pyrazol-3-one, 2,4-dihydro-5-methyl-2-phenyl-] | – | – | yes | – |
| COC(=O)c1ccccc1C(=O)OC [dimethyl phthalate] | – | – | no | – |
